Legend:
mice = assay: xylene-induced mouse ear swelling test; assay type: in vivo; settings: 10 mg/Kg
Method: Fifty healthy adult male mice were randomly divided into 5 groups. […] […] One hour after administration, 20 μL of xylene was evenly applied to both sides of the right ear of mouse, and xylene was not applied to the left ear as self control. One hour later, the two ears were cut off, and two ear pieces were removed from the same parts of the two ears with a 6 mm hole punch. The two ear pieces were weighed on a precision balance, and the swelling degree (right ear piece weight-left ear piece weight) and swelling inhibition rate (right ear piece weight-left ear piece weight)/left ear piece weight×100%) were calculated.

Kunming female mice [1] = assay: oxytocin-induced dysmenorrhea model in mice (diethylstilbestrol sensitization); assay type: in vivo, mouse; settings: Table 9, positive control 50 mg/Kg intraperitoneal
Method: (§1) A mouse dysmenorrhea model was established with reference to Yang L., Cao Z., Yu B. & Chai C. An in vivo mouse model of primary dysmenorrhea. Exp Anim. 2015, August 64, 295-303. Adult healthy Kunming female mice were randomly grouped, 10 mice in each group. Experimental mice were intragastrically given diethylstilbestrol 0.2 mg daily for 12 days. Different kinds and dosages of the inhibitors of the cytochrome bc1 complex were given intraperitoneally or intragastrically 30 min after the last administration. Indometacin (50 mg/kg) was injected intraperitoneally as positive control, PGF2α (1.3 mg/kg) or oxytocin (20 U/kg) was injected intraperitoneally 1 h later, and the writhe starting time (reaction latency) and the number of writhing times within 30 min were observed and recorded.

SD rats = assay: carrageenan-induced rat paw swelling test; assay type: in vivo; settings: 4 mg/Kg positive control
Method: Eighteen healthy adult male mice were randomly divided into 3 groups. FAPM (100 mg/kg) was administered intraperitoneally once a day for 3 consecutive days. The control group was injected with the same amount of solvent, and the positive drug dexamethasone (4 mg/kg) was administered intragastrically once a day for 3 consecutive days. Thirty minutes after the last administration, 0.1 mL of 1% carrageenan was injected subcutaneously into the right hind paw of each rat, and the plantar thickness was measured before injection and 1, 2 and 3 hours after injection. Three hours later, the rats were sacrificed by dislocation. The feet were cut off from the knee joints and weighed on a precision balance. The swelling degree of the paw (right foot weight-left foot weight) was calculated.

Kunming female mice [2] = assay: PGF2α-induced dysmenorrhea model in mice (diethylstilbestrol sensitization); assay type: in vivo, mouse; settings: for Number of writhing times: within 30 min
Method: as §1

Kunming male mice = assay: acetic acid writhing test on mice; assay type: in vivo, mouse; settings: for Number of writhing times: within 30 min
[3] = Table 8, positive control 50 mg/Kg intraperitoneal
[4] = Table 5, positive control 50 mg/Kg intraperitoneal

For COc1ccc2c(c1)c(CC(=O)O)c(C)n2C(=O)c1ccc(Cl)cc1 [Indomethacin, reference compound], the “ear swelling degree versus control group” value (mice) was “no statistical difference”, the Ear swelling (mice; positive control intraperitoneal, 1 hour after xylene) was 12 ± 3.74 mg and the Writhe starting time (Kunming female mice [1]) was 3.5 ± 1.0. For the same compound, the “Number of writhing times” value (Kunming female mice [1]; oxytocin (20 U/kg), within 30 min) was 14.7 ± 1.4, the “Paw swelling thickness 1 h” value (SD rats; 1 h after carrageenan) was 5.52 ± 0.39 mm and the “Paw swelling thickness 2 h” value (SD rats; 2 h after carrageenan) was 5.65 ± 0.39 mm. For the same compound, the “Paw swelling thickness 3 h” value (SD rats; 3 h after carrageenan) was 6.11 ± 0.15 mm, the “Paw swelling (right foot weight-left foot weight)” value (SD rats; 3 hours after carrageenan) was 0.518 ± 0.05 g and the Writhe starting time (Kunming female mice [2]; Table 7, 50 mg/Kg intraperitoneal) was 1.89 ± 0.6 min. The “Number of writhing times” value (Kunming female mice [2]; Table 7, 50 mg/Kg intraperitoneal, 1 h before PGF2α (1.3 mg/kg)) was 15.0 ± 2.1, the Writhe starting time (Kunming female mice [2]; [3]) was 2.1 ± 1.2 min and the “Number of writhing times” value (Kunming female mice [2]; [3]) was 16.8 ± 2.5. The Writhe starting time (Kunming male mice; Table 3, 50 mg/Kg intraperitoneal) was 4.6 ± 0.8 min, the “Number of writhing times” value (Kunming male mice; Table 3, 50 mg/Kg intraperitoneal, 1 hour before acetic acid) was 15.8 ± 3.9 and the Writhe starting time (Kunming male mice; [4]) was 3.4 ± 1.0 min. For the same compound, the “Number of writhing times” value (Kunming male mice; [4]) was 24.8 ± 4.8.
